# Test results as given in ChEMBL document CHEMBL4270485, “Determination of Gymnemic Acid I as a Protein Biosynthesis Inhibitor Using Chemical Proteomics” (J Nat Prod, 2017).
# Assays:
# [1] = species: Oryctolagus cuniculus; assay: Inhibition of protein synthesis in rabbit reticulocytes pre-incubated for 30 mins before labeled-lysine-t-RNA and amino acid mixture addition and measured after 1 hr by luciferase reporter gene assay; format: functional, cell-based
# [2] = Drug internalization in human HeLa cells at 1 uM by RP-HPLC-MS analysis; format: ADME, cell-based
# [3] = molecular target: 14-3-3 protein zeta/delta (Homo sapiens) (UniProt P63104); assay: Binding affinity to […] zeta/delta in human Hela cells lysates assessed as protein enrichment by measuring normalized heavy/light ratio at by nano-LC-ESIMS/MS analysis; format: cell-free
# [4] = molecular target: T1, 80S Ribosome (Homo sapiens) (UniProt P08865+P42677+P62753+P15880+P23396+P61247+P62701+P22090+P46782+P62081+P62241+P46781+P46783+P62280+P25398+P62277+P62263+P62841+P62244+P62249+P08708+P62269+P39019+P60866+P63220+P62266+P62847+P62851+P62854+P62979+P62857+P62273+P62861+P39023+P36578+P46777+Q02878+P18124+P62424+P62917+P32969+P27635+P62906+P62913+P30050+P26373+P40429+P50914+P61313+P18621+Q07020+Q02543+P84098+P46778+P35268+P62829+P62750+P83731+P61254+P61353+P46776+P46779+P47914+P62888+P62899+P62910+P49207+P42766+P18077+Q9Y3U8+P83881+P61927+P61513+P63173+P62891+P62945+P05388+P05386); assay: Binding affinity to 40S ribosomal protein S2 in human Hela cells lysates assessed as protein enrichment by measuring normalized heavy/light ratio at by nano-LC-ESIMS/MS analysis; format: cell-free
# [5] = molecular target: Small ribosomal subunit protein eS27 (Homo sapiens) (UniProt P42677); assay: Binding affinity to 40S ribosomal protein S27 in human Hela cells lysates assessed as protein enrichment by measuring normalized heavy/light ratio at by nano-LC-ESIMS/MS analysis; format: cell-free
# [6] = molecular target: T1, 80S Ribosome (Homo sapiens); assay: Binding affinity to 40S ribosomal protein S3a in human Hela cells lysates assessed as protein enrichment by measuring normalized heavy/light ratio at by nano-LC-ESIMS/MS analysis; format: cell-free
# [7] = molecular target: T1, 80S Ribosome (Homo sapiens); assay: Binding affinity to 40S ribosomal protein S4 in human Hela cells lysates assessed as protein enrichment by measuring normalized heavy/light ratio at by nano-LC-ESIMS/MS analysis; format: cell-free
# [8] = molecular target: T1, 80S Ribosome (Homo sapiens); assay: Binding affinity to 40S ribosomal protein S5 in human Hela cells lysates assessed as protein enrichment by measuring normalized heavy/light ratio at by nano-LC-ESIMS/MS analysis; format: cell-free
# [9] = molecular target: T1, 80S Ribosome (Homo sapiens); assay: Binding affinity to 60S acidic ribosomal protein P0 in human Hela cells lysates assessed as protein enrichment by measuring normalized heavy/light ratio at by nano-LC-ESIMS/MS analysis; format: cell-free
# [10] = molecular target: T1, 80S Ribosome (Homo sapiens); assay: Binding affinity to 60S ribosomal protein L10 in human Hela cells lysates assessed as protein enrichment by measuring normalized heavy/light ratio at by nano-LC-ESIMS/MS analysis; format: cell-free
# [11] = molecular target: T1, 80S Ribosome (Homo sapiens); assay: Binding affinity to 60S ribosomal protein L38 in human Hela cells lysates assessed as protein enrichment by measuring normalized heavy/light ratio at by nano-LC-ESIMS/MS analysis; format: cell-free
# [12] = molecular target: T1, 80S Ribosome (Homo sapiens); assay: Binding affinity to 60S ribosomal protein L4 in human Hela cells lysates assessed as protein enrichment by measuring normalized heavy/light ratio at by nano-LC-ESIMS/MS analysis; format: cell-free
# [13] = molecular target: Endoplasmic reticulum chaperone BiP (Homo sapiens) (UniProt P11021); assay: Binding affinity to 78 kDa glucose-regulated protein in human Hela cells lysates assessed as protein enrichment by measuring normalized heavy/light ratio at by nano-LC-ESIMS/MS analysis; format: cell-free
# [14] = molecular target: Elongation factor 1-gamma (Homo sapiens) (UniProt P26641); assay: Binding affinity to elongation factor 1-gamma in human Hela cells lysates assessed as protein enrichment by measuring normalized heavy/light ratio at by nano-LC-ESIMS/MS analysis; format: cell-free
# [15] = molecular target: Elongation factor 2 (Homo sapiens) (UniProt P13639); assay: Binding affinity to elongation factor 2 in human Hela cells lysates assessed as protein enrichment by measuring normalized heavy/light ratio at by nano-LC-ESIMS/MS analysis; format: cell-free
# [16] = molecular target: Heat shock cognate 71 kDa protein (Homo sapiens) (UniProt P11142); assay: Binding affinity to heat shock cognate 71 kDa protein in human Hela cells lysates assessed as protein enrichment by measuring normalized heavy/light ratio at by nano-LC-ESIMS/MS analysis; format: cell-free
# [17] = molecular target: Heat shock protein HSP 90-beta (Homo sapiens) (UniProt P08238); assay: Binding affinity to heat shock protein 90-beta in human Hela cells lysates assessed as protein enrichment by measuring normalized heavy/light ratio at by nano-LC-ESIMS/MS analysis; format: cell-free
# [18] = molecular target: L-lactate dehydrogenase A chain (Homo sapiens) (UniProt P00338); assay: Binding affinity to L-lactate dehydrogenase A chain in human Hela cells lysates assessed as protein enrichment by measuring normalized heavy/light ratio at by nano-LC-ESIMS/MS analysis; format: cell-free
# [19] = molecular target: Peptidyl-prolyl cis-trans isomerase A (Homo sapiens) (UniProt P62937); assay: Binding affinity to peptidyl-prolylcis-trans isomerase in human Hela cells lysates assessed as protein enrichment by measuring normalized heavy/light ratio at by nano-LC-ESIMS/MS analysis; format: cell-free
# [20] = molecular target: Solute carrier family 25 member 3 (Homo sapiens) (UniProt Q00325); assay: Binding affinity to phosphate carrier protein in human Hela cells lysates assessed as protein enrichment by measuring normalized heavy/light ratio at by nano-LC-ESIMS/MS analysis; format: cell-free
# [21] = molecular target: Phosphoglycerate kinase 1 (Homo sapiens) (UniProt P00558); assay: Binding affinity to phosphoglycerate kinase 1 in human Hela cells lysates assessed as protein enrichment by measuring normalized heavy/light ratio at by nano-LC-ESIMS/MS analysis; format: cell-free
# [22] = molecular target: Pyruvate kinase PKM (Homo sapiens) (UniProt P14618); assay: Binding affinity to pyruvate kinase isozymes M1/M2 in human Hela cells lysates assessed as protein enrichment by measuring normalized heavy/light ratio at by nano-LC-ESIMS/MS analysis; format: cell-free
# [23] = molecular target: Ras-related protein Rab-7a (Homo sapiens) (UniProt P51149); assay: Binding affinity to ras-related protein rab-7a in human Hela cells lysates assessed as protein enrichment by measuring normalized heavy/light ratio at by nano-LC-ESIMS/MS analysis; format: cell-free
# [24] = molecular target: Transketolase (Homo sapiens) (UniProt P29401); assay: Binding affinity to transketolase in human Hela cells lysates assessed as protein enrichment by measuring normalized heavy/light ratio at by nano-LC-ESIMS/MS analysis; format: cell-free
# [25] = molecular target: Trypsin (Homo sapiens) (UniProt P07477+P07478+P35030); assay: Binding affinity to trypsin in human Hela cells lysates assessed as protein enrichment by measuring normalized heavy/light ratio at by nano-LC-ESIMS/MS analysis; format: cell-free
# [26] = molecular target: Tubulin beta-4B chain (Homo sapiens) (UniProt P68371); assay: Binding affinity to tubulin beta-4B chain in human Hela cells lysates assessed as protein enrichment by measuring normalized heavy/light ratio at by nano-LC-ESIMS/MS analysis
# Chain of Tubulin beta-4B chain (Homo sapiens) (P68371 whole entry, looked up): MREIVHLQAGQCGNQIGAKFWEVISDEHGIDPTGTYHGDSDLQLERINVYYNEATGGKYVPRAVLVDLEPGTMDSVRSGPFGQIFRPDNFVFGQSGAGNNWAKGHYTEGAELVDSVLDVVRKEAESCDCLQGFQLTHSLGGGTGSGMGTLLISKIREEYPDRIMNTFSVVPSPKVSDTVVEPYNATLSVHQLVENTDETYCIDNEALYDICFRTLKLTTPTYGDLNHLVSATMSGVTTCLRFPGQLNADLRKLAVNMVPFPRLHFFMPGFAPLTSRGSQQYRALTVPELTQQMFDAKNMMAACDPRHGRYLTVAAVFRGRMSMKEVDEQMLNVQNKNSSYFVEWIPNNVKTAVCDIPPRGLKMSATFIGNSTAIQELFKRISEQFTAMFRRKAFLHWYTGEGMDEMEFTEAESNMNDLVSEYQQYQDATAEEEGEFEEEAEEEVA
# Chain of Endoplasmic reticulum chaperone BiP (Homo sapiens) (P11021 whole entry): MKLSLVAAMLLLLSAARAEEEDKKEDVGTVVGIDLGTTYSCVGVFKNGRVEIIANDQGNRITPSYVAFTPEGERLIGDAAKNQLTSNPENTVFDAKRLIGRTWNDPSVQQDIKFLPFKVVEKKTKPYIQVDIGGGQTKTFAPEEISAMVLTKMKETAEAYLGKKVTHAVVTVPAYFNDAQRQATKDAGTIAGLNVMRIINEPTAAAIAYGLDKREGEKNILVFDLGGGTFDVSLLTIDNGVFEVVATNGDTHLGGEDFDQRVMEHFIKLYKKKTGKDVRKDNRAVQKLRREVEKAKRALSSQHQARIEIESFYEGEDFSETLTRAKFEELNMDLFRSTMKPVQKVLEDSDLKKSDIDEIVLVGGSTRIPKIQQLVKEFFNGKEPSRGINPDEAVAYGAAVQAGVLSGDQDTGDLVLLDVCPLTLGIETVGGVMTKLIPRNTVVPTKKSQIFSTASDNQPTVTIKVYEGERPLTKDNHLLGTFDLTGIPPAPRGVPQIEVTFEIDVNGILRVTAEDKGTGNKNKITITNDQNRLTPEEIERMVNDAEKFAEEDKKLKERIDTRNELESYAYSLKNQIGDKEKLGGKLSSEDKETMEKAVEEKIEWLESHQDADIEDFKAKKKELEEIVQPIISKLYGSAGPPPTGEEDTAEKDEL
# Chain of Transketolase (Homo sapiens) (P29401 whole entry): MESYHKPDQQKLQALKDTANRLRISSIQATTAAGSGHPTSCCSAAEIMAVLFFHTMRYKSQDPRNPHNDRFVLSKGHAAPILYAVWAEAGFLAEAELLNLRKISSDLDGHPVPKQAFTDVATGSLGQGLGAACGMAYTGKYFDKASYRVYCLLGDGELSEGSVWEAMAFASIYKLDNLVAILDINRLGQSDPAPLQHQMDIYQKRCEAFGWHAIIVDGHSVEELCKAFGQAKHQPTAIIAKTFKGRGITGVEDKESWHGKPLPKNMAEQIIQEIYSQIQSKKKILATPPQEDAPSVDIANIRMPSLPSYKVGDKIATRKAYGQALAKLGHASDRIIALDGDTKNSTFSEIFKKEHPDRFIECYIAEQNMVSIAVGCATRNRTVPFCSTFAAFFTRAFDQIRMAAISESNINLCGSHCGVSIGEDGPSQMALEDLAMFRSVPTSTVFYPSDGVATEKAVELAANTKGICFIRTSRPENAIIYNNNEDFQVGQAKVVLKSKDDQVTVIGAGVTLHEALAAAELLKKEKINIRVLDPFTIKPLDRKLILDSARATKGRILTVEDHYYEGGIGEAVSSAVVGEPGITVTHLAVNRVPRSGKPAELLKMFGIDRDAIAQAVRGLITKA
# Chain of Phosphoglycerate kinase 1 (Homo sapiens) (P00558 whole entry): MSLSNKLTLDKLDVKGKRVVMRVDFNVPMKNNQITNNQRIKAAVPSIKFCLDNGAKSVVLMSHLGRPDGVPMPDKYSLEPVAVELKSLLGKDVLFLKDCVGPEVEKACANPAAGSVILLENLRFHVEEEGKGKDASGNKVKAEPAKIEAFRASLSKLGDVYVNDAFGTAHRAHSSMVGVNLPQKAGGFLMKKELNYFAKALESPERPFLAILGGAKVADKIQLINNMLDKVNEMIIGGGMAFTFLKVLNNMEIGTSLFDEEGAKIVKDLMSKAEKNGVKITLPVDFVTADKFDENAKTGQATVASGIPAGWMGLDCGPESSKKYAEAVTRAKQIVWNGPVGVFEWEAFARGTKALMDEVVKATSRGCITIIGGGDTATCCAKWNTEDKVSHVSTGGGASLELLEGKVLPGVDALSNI
# Chain of Elongation factor 1-gamma (Homo sapiens) (P26641 whole entry): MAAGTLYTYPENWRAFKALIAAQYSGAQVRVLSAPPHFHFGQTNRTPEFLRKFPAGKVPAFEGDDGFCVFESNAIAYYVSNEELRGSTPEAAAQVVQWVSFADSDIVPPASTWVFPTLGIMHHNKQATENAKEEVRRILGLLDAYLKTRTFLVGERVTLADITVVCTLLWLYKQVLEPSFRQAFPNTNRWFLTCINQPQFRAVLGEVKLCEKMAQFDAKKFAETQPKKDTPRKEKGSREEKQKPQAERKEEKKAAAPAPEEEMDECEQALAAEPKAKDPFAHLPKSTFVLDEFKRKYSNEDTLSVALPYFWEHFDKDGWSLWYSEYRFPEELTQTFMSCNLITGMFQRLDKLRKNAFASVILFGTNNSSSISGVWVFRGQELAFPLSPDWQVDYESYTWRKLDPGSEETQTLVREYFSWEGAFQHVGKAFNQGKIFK
# Chain of Solute carrier family 25 member 3 (Homo sapiens) (Q00325 whole entry): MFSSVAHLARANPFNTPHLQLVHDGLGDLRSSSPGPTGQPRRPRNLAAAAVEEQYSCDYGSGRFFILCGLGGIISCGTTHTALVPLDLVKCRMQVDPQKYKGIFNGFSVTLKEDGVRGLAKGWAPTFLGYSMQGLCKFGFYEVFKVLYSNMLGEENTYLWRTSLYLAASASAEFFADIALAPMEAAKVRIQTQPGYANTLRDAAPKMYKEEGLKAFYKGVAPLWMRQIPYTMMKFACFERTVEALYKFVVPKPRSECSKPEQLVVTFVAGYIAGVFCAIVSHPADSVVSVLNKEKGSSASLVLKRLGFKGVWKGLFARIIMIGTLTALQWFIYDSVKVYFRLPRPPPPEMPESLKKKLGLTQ
# Chain of Heat shock cognate 71 kDa protein (Homo sapiens) (P11142 2-646 limits assumed): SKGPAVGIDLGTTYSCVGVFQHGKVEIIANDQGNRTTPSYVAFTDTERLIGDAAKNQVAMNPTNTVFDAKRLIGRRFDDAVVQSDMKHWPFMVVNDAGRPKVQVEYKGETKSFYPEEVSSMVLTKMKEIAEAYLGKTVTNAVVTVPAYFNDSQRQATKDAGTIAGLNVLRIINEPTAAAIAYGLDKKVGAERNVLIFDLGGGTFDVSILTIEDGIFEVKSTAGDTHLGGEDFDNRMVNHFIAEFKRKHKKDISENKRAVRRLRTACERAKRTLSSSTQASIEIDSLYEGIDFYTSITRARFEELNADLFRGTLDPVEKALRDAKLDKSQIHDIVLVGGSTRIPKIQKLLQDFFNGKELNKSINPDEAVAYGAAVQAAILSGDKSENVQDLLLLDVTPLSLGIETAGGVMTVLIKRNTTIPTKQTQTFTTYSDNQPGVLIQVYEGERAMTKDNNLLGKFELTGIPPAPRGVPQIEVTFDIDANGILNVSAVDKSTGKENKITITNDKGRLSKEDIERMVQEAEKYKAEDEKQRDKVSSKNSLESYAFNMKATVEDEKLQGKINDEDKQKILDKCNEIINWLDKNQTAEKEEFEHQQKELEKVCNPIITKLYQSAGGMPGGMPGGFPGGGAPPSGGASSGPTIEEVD
# Chain of Heat shock protein HSP 90-beta (Homo sapiens) (P08238 whole entry): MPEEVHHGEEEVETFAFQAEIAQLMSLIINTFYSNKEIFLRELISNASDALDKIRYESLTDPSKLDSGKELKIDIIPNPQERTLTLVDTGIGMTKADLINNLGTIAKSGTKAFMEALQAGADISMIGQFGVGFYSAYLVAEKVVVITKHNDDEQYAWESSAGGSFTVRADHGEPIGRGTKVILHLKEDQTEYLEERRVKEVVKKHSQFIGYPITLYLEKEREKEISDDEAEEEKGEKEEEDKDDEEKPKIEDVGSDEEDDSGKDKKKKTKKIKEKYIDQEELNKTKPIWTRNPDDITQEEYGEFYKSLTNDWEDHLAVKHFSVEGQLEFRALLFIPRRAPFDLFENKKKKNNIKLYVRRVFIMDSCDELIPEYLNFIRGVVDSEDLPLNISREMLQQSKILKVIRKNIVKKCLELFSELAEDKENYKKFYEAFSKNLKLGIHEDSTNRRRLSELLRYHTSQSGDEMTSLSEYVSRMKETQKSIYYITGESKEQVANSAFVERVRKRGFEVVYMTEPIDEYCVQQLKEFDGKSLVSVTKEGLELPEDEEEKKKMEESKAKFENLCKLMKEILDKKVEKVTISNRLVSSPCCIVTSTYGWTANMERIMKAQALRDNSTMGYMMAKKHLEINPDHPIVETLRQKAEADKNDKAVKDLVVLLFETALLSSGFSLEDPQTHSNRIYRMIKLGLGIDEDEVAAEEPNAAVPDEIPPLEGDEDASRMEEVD
# Chain of Ras-related protein Rab-7a (Homo sapiens) (P51149 whole entry): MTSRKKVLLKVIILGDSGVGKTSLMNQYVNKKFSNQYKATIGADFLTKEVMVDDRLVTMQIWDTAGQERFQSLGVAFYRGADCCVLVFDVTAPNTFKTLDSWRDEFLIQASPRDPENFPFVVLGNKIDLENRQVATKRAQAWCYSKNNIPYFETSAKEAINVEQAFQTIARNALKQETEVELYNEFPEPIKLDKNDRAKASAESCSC
# Chain of 14-3-3 protein zeta/delta (Homo sapiens) (P63104 whole entry): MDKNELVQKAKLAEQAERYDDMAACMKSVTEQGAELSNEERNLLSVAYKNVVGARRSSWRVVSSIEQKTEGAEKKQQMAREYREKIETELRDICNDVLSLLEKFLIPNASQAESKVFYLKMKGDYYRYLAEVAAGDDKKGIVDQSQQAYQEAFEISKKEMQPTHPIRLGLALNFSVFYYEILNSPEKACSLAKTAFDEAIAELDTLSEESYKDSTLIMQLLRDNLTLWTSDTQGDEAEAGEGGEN
# Chain of Peptidyl-prolyl cis-trans isomerase A (Homo sapiens) (P62937 whole entry, looked up): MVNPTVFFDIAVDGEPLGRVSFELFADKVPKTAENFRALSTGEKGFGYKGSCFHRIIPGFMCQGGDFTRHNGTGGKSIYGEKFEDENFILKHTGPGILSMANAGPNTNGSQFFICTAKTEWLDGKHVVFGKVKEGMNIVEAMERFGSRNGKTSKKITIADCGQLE
compound,measurement,setting,value
C/C=C(\C)C(=O)O[C@H]1[C@H](O)[C@]2(COC(C)=O)[C@@H](O)C[C@]3(C)C(=CC[C@@H]4[C@@]5(C)CC[C@H](O[C@@H]6O[C@H](C(=O)O)[C@@H](O)[C@H](O)[C@H]6O)[C@@](C)(CO)[C@@H]5CC[C@]43C)[C@@H]2CC1(C)C,inhibition,[1],Dose-dependent effect
same,Drug uptake,[2],4%
same,Ratio,[3],0.62
same,Ratio,[4],0.114
same,Ratio,[5],0.418
same,Ratio,[6],0.238
same,Ratio,[7],0.16
same,Ratio,[8],0.255
same,Ratio,[9],0.245
same,Ratio,[10],0.105
same,Ratio,[11],0.33
same,Ratio,[12],0.396
same,Ratio,[13],0.527
same,Ratio,[14],0.536
same,Ratio,[15],0.688
same,Ratio,[16],0.615
same,Ratio,[17],0.737
same,Ratio,[18],0.48
same,Ratio,[19],1.21
same,Ratio,[20],0.57
same,Ratio,[21],0.665
same,Ratio,[22],0.899
same,Ratio,[23],0.568
same,Ratio,[24],0.623
same,Ratio,[25],1
same,Ratio,[26],0.423
